In patent US11192891B2, “Diazaspiro ROCK inhibitors” (BRISTOL-MYERS SQUIBB COMPANY, priority 2017, dated 2021):

Target: ROCK2 (Homo sapiens, UniProt O75116)
Test: ROCK kinase inhibition assay, FITC peptide substrate, LABCHIP 3000 readout
Type: biochemical
Settings: 5 μM ATP, 1.5 μM peptide substrate
How it was run: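 Tested across a concentration range, with percent inhibition of kinase activity derived per concentration. Peptide phosphorylation, initiated by adding the Rho kinase variant (final DMSO <2%), was quenched with EDTA and substrate/product resolved by mobility shift.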

Sequence of ROCK2 (O75116 whole entry, species assumed): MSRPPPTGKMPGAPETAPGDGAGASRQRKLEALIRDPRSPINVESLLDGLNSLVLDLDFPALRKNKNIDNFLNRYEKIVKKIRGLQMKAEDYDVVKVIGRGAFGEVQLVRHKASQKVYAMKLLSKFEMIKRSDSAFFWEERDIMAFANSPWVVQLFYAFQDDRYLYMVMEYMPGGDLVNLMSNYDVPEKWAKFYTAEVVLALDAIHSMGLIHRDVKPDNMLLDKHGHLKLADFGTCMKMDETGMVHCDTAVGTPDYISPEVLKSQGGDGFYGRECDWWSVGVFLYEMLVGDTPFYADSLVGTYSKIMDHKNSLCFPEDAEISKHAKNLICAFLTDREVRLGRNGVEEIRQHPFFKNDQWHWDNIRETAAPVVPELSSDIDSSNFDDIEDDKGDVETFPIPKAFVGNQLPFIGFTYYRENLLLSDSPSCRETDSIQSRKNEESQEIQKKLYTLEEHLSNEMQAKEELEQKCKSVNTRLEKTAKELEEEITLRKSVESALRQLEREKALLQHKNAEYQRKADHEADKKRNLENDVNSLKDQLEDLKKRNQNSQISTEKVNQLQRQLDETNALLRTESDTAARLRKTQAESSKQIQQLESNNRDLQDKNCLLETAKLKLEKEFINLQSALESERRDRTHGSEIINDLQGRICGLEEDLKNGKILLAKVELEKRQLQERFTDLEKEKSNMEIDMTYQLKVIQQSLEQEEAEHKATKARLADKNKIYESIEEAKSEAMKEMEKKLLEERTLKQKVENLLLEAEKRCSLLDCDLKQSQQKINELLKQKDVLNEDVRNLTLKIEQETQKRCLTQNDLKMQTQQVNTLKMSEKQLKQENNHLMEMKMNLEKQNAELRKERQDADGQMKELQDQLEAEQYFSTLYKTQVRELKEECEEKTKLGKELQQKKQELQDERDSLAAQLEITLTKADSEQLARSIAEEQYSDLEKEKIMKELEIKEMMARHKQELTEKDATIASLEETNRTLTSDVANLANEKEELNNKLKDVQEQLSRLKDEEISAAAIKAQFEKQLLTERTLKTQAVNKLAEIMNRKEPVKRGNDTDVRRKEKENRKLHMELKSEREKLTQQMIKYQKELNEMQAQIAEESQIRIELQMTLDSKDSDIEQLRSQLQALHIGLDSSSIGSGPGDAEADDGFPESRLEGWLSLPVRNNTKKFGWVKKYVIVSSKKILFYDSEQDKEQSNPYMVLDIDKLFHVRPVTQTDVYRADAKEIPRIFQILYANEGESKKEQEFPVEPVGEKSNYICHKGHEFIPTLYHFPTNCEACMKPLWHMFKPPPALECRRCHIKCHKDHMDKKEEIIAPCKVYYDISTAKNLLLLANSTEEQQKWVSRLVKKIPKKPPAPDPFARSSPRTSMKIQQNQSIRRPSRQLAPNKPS

Structure (SMILES) | IC50 [nM]
COc1cc(N2CCC3(CCN(C(=O)c4ccno4)CC3)C2=O)ccc1-c1cn[nH]c1 [Example 97, 2-[3-methoxy-4-(1H-pyrazol-4-yl)phenyl]-8-(1,2-oxazole-5-carbonyl)-2,8-diazaspiro[4.5]decan-1-one] | 427
CCc1ccc(C(=O)N2CCC3(CC2)CCN(c2ccc(-c4cn[nH]c4)c(OC)c2)C3=O)nc1 [Example 108, 8-(5-ethylpyridine-2-carbonyl)-2-[3-methoxy-4-(1H-pyrazol-4-yl)phenyl]-2,8-diazaspiro[4.5]decan-1-one] | 12
COc1cc(N2CCC3(CCN(C(=O)c4ccc5c(c4)nnn5C)CC3)C2=O)ccc1-c1cn[nH]c1 [Example 196, 2-[3-methoxy-4-(1H-pyrazol-4-yl)phenyl]-8-(1-methyl-1H-1,2,3-benzotriazole-5-carbonyl)-2,8-diazaspiro[4.5]decan-1-one] | 9.1
COc1cc(N2CCC3(CCN(C(=O)c4ccc5nc(C(F)(F)F)cnc5c4)CC3)C2=O)ccc1-c1cn[nH]c1 [Example 138, 2-[3-methoxy-4-(1H-pyrazol-4-yl)phenyl]-8-[2-(trifluoromethyl)quinoxaline-6-carbonyl]-2,8-diazaspiro[4.5]decan-1-one] | 63
COc1cc(N2CCC3(CCN(C(=O)c4ccc(S(N)(=O)=O)cc4)CC3)C2=O)ccc1-c1cn[nH]c1 [Example 55, 4-{2-[3-methoxy-4-(1H-pyrazol-4-yl)phenyl]-1-oxo-2,8-diazaspiro[4.5]decane-8-carbonyl}benzene-1-sulfonamide] | 96
COc1cc(N2CCC3(CCN(C(=O)C4CCN(S(C)(=O)=O)CC4)CC3)C2=O)ccc1-c1cn[nH]c1 [Example 154, 8-(1-methanesulfonylpiperidine-4-carbonyl)-2-[3-methoxy-4-(1H-pyrazol-4-yl)phenyl]-2,8-diazaspiro[4.5]decan-1-one] | 2000
COc1cc(N2CCC3(CCN(C(=O)C4CCN(c5ncccn5)CC4)CC3)C2=O)ccc1-c1cn[nH]c1 [Example 140, 2-[3-methoxy-4-(1H-pyrazol-4-yl)phenyl]-8-[1-(pyrimidin-2-yl)piperidine-4-carbonyl]-2,8-diazaspiro[4.5]decan-1-one] | 1240
COc1ccc(-c2cc(C(=O)N3CCC4(CC3)CCN(c3ccc(-c5cn[nH]c5)c(OC)c3)C4=O)on2)cc1 [Example 113, 2-[3-methoxy-4-(1H-pyrazol-4-yl)phenyl]-8-[3-(4-methoxyphenyl)-1,2-oxazole-5-carbonyl]-2,8-diazaspiro[4.5]decan-1-one] | 17
COc1cc(N2CCC3(CCN(C(=O)c4cccc(Oc5ccccc5)c4)CC3)C2=O)ccc1-c1cn[nH]c1 [Example 57, 2-[3-methoxy-4-(1H-pyrazol-4-yl)phenyl]-8-(3-phenoxybenzoyl)-2,8-diazaspiro[4.5]decan-1-one] | 118
COc1cc(N2CCC3(CCN(C(=O)c4ccc(C(F)(F)F)nc4)CC3)C2=O)ccc1-c1cn[nH]c1 [Example 87, 2-[3-methoxy-4-(1H-pyrazol-4-yl)phenyl]-8-[6-(trifluoromethyl)pyridine-3-carbonyl]-2,8-diazaspiro[4.5]decan-1-one] | 557
COc1cc(N2CCC3(CCN(C(=O)c4ccc5c(c4)CNC5=O)CC3)C2=O)ccc1-c1cn[nH]c1 [Example 144, 2-[3-methoxy-4-(1H-pyrazol-4-yl)phenyl]-8-(1-oxo-2,3-dihydro-1H-isoindole-5-carbonyl)-2,8-diazaspiro[4.5]decan-1-one] | 94
COc1cc(N2CCC3(CCN(C(=O)c4ccc5c(c4)ncn5C)CC3)C2=O)ccc1-c1cn[nH]c1 [Example 164, 2-[3-methoxy-4-(1H-pyrazol-4-yl)phenyl]-8-(1-methyl-1H-1,3-benzodiazole-5-carbonyl)-2,8-diazaspiro[4.5]decan-1-one] | 2.6
COc1ccccc1C(=O)N1CCC2(CC1)CCN(c1ccc(-c3cn[nH]c3)c(OC)c1)C2=O [Example 12, 2-[3-methoxy-4-(1H-pyrazol-4-yl)phenyl]-8-(2-methoxybenzoyl)-2,8-diazaspiro[4.5]decan-1-one] | 54
COC(=O)c1ccc(C(=O)N2CCC3(CC2)CCN(c2ccc(-c4cn[nH]c4)c(OC)c2)C3=O)cc1 [Example 24, methyl 4-{2-[3-methoxy-4-(1H-pyrazol-4-yl)phenyl]-1-oxo-2,8-diazaspiro[4.5]decane-8-carbonyl}benzoate] | 23
COc1cc(N2CCC3(CCN(C(=O)c4cnccn4)CC3)C2=O)ccc1-c1cn[nH]c1 [Example 71, 2-[3-methoxy-4-(1H-pyrazol-4-yl)phenyl]-8-(pyrazine-2-carbonyl)-2,8-diazaspiro[4.5]decan-1-one] | 289
COc1cc(N2CCC3(CCN(C(=O)c4ncc(Br)cn4)CC3)C2=O)ccc1-c1cn[nH]c1 [Example 116, 8-(5-bromopyrimidine-2-carbonyl)-2-[3-methoxy-4-(1H-pyrazol-4-yl)phenyl]-2,8-diazaspiro[4.5]decan-1-one] | 88

Now from value to compound:

IC50 [nM] | Structure (SMILES)
1.1 | COc1cc(N2CCC3(CCN(C(=O)c4ccc(N5CCN(Cc6ccccc6Cl)CC5)cc4)CC3)C2=O)ccc1-c1cn[nH]c1 [Example 223, 8-(4-{4-[(2-chlorophenyl)methyl]piperazin-1-yl}benzoyl)-2-[3-methoxy-4-(1H-pyrazol-4-yl)phenyl]-2,8-diazaspiro[4.5]decan-1-one]
6.8 | CN1CCN(c2ccc(C(=O)N3CCC4(CC3)CCN(c3cccc(-c5ccc6cn[nH]c6c5)c3)C4=O)cc2)CC1 [Example 49, 2-[3-(1H-indazol-6-yl)phenyl]-8-[4-(4-methylpiperazin-1-yl)benzoyl]-2,8-diazaspiro[4.5]decan-1-one]
20 | COc1ccc2cc(C(=O)N3CCC4(CC3)CCN(c3ccc(-c5cn[nH]c5)c(OC)c3)C4=O)ccc2c1 [Example 176, 2-[3-methoxy-4-(1H-pyrazol-4-yl)phenyl]-8-(6-methoxynaphthalene-2-carbonyl)-2,8-diazaspiro[4.5]decan-1-one]
1.6 | COc1cc(N2CCC3(CCN(C(=O)c4ccc(N5CCN(CCC(C)C)CC5)cc4)CC3)C2=O)ccc1-c1cn[nH]c1 [Example 238, 2-[3-methoxy-4-(1H-pyrazol-4-yl)phenyl]-8-{4-[4-(3-methylbutyl)piperazin-1-yl]benzoyl}-2,8-diazaspiro[4.5]decan-1-one]
3.7 | COc1cc(N2CCC3(CCN(C(=O)c4ccc(-c5ccc(S(C)(=O)=O)cc5)cc4)CC3)C2=O)ccc1-c1cn[nH]c1 [Example 173, 8-{4′-methanesulfonyl-[1,1′-biphenyl]-4-carbonyl}-2-[3-methoxy-4-(1H-pyrazol-4-yl)phenyl]-2,8-diazaspiro[4.5]decan-1-one]
53 | COc1cc(N2CCC3(CCN(C(=O)c4ccc(CO)cc4)CC3)C2=O)ccc1-c1cn[nH]c1 [Example 15, 8-[4-(hydroxymethyl)benzoyl]-2-[3-methoxy-4-(1H-pyrazol-4-yl)phenyl]-2,8-diazaspiro[4.5]decan-1-one]
326 | O=C(c1ccccc1)N1CCC2(CC1)CCN(c1ccc(-c3cn[nH]c3)cc1)C2=O [Example 1, 8-benzoyl-2-[4-(1H-pyrazol-4-yl)phenyl]-2,8-diazaspiro[4.5]decan-1-one]
106 | CN1CCN(c2ccc(C(=O)N3CCC4(CC3)CCN(c3ccc(-c5ccc6cn[nH]c6c5)cc3)C4=O)cc2)CC1 [Example 34, 2-[4-(1H-indazol-6-yl)phenyl]-8-[4-(4-methylpiperazin-1-yl)benzoyl]-2,8-diazaspiro[4.5]decan-1-one]
